According to US6914045B2, “Glycopeptide antibiotics” (Wyeth Holdings Corporation, priority 2001, dated 2005):

How the values were obtained:
[1] = test system: Staphylococcus aureus-SMITH (GC 4543); experiment: acute lethal infection in mice; type: in vivo; conditions: acute lethal infection, female CD-1 mice, intraperitoneal challenge, intravenous 30 min. after infection, 7 day survival
Procedure: Methods for in Vivo Antibacterial Evaluation
The therapeutic effects of glycopeptide antibiotics of Formula I are determined against acute lethal infections with S. aureus (strain Smith), a penicillin resistant strain of S. pneumoniae (strain GC 1894), and a vancomycin resistant strain of E. fecalis (strain GC 6189 and GC 2246). Female mice, CD-1 (Charles River Laboratories), 20+/−2 gm, are challenged by intraperitoneal injection of sufficient bacteria (suspended in /trypticase Soy Broth or hog gastric mucin) to kill non-treated controls within 24-48 hr. Antibacterial agents, contained in 0.2 mL of saline or 5% dextrose solution, are administered intravenously 30 min. after infection. Five mice are treated at each dose level. The 7 day survival ratios from 3 separate tests are pooled for calculation of median effective dose (ED50).

Enterococcus sp. = experiment: in vitro antibacterial evaluation, MIC by broth dilution; type: cell-based; conditions: broth dilution, 18 hours at 35° C.
Method in brief: (§1)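 Broth dilution per NCCLS M7-A2 in Mueller-Hinton II medium, inoculum 5×10^5 CFU/mL, antibiotic range 64-0.06 μg/mL. MIC taken as lowest concentration inhibiting growth; Gram-positive panel includes recent clinical isolates resistant to methicillin, penicillin and/or vancomycin.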

Staphylococcus sp. = experiment: as above; type: cell-based; conditions: broth dilution, 18 hours at 35° C.
Method in brief: as §1

Escherichia coli = experiment: as above; type: cell-based; conditions: 18 hours at 35° C.
Method in brief: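 Broth dilution MIC per NCCLS M7-A2 in Mueller-Hinton II medium, inoculum 5×10^5 CFU/mL, antibiotic range 64-0.06 μg/mL. MIC taken as lowest concentration inhibiting growth.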

CCCCCCC(=O)OCC1OC(OC2C(CO)OC(Oc3ccc(CC4NC(=O)C(C(C)c5ccccc5)NC(=O)CNC(=O)C(CO)NC(=O)C(C(O)C5CNC(=N)N5C5OC(CO)C(O)C(O)C5O)NC(=O)C(C(O)C5CNC(=N)N5)NC4=O)cc3)C(O)C2O)C(O)C(O)C1O (stereo not drawn) [Example 97b, Cyclo[glycyl-β-methylphenylalanyl-O-[4-O-(6-O-heptanoylhexopyranosyl)hexopyranosyl]-tyrosyl-3-(2-iminoimidazolidin-4-yl)seryl-3-(3-hexopyranosyl-2-iminoimidazolidin-4-yl)-serylseryl]]
32 µg/mL: MIC Escherichia coli (GC 4559) (Escherichia coli)
2 µg/mL: MIC Enterococcus faecalis (GC 2242) (Enterococcus sp.; Enterococcus faecalis (GC 2242)) | MIC Enterococcus faecalis (GC 2242) (Enterococcus sp.)
1 µg/mL: MIC Coagulase Negative Staphylococcus (GC 4537) (Staphylococcus sp.) | MIC Coagulase Negative Staphylococcus (GC 4538) (Staphylococcus sp.) | MIC Coagulase Negative Staphylococcus (GC 4547) (Staphylococcus sp.) | MIC Coagulase Negative Staphylococcus (GC 4537) (Staphylococcus sp.; strain GC 4537) | MIC Coagulase Negative Staphylococcus (GC 4538) (Staphylococcus sp.; strain GC 4538) | MIC Coagulase Negative Staphylococcus (GC 4547) (Staphylococcus sp.; strain GC 4547) | MIC Staphylococcus aureus (ATCC 29213) (Staphylococcus sp.; strain ATCC 29213) | MIC Staphylococcus aureus (GC 1131) (Staphylococcus sp.; strain GC 1131) | MIC Staphylococcus aureus (GC 4535) (Staphylococcus sp.; strain GC 4535) | MIC Escherichia coli (GC 4560) (Escherichia coli)
8 mg/kg: median effective dose (ED50), Staphylococcus aureus-SMITH (GC 4543) [1]
0.5 µg/mL: MIC Staphylococcus aureus-SMITH (GC 4536) (Staphylococcus sp.; strain GC 4536)
4 µg/mL: MIC Enterococcus faecalis (ATCC 29212) (Enterococcus sp.; Enterococcus faecalis (ATCC 29212)) | MIC Enterococcus faecalis (GC 4552) (Enterococcus sp.; Enterococcus faecalis (GC 4552)) | MIC Enterococcus faecalis (ATCC 29212) (Enterococcus sp.) | MIC Enterococcus faecalis (GC 4552) (Enterococcus sp.)
